What was measured:
[1] = biological target: recombinant human β-secretase (rhBACE-1) (Homo sapiens (Human), UniProt P56817); experiment: β-Secretase enzyme inhibition assay (Test Example 1); type: biochemical; conditions: compound solution 3 μM (FIG. 1 legend: 1.0 μM), 37° C., 2 hr, fluorescent substrate peptide
Description: β-Secretase Enzyme Inhibition Assay
Compounds were dissolved in dimethylsulfoxide (DMSO), and further diluted in 0.1 M sodium acetate buffer (with 150 mM sodium chloride, pH 4.5). The solution with no compound was used as a negative control. Then, 100 μL of these solutions (compound concentration: 3 μM), 1 μL of recombinant human β-secretase (rhBACE-1, R&D), and 5 μL of the fluorescent substrate peptide were mixed in a black 96-well plate (Nunc). After mixtures were incubated in the dark at 37° C. for 2 hr, the fluorescence intensities of the mixtures were measured by fluorescence microplate reader (Wallac) at 540 nm for excitation and at 590 nm for emission. The inhibition ratio was calculated as a percentage of the negative control. The sequence of the peptide was […] and labeled with fluorescent donor (Cy3) at Ser-1 and with quencher (Cy5Q) at Lys-9, respectively (Invitrogen).

Sequence of recombinant human β-secretase (rhBACE-1) (P56817 46-501): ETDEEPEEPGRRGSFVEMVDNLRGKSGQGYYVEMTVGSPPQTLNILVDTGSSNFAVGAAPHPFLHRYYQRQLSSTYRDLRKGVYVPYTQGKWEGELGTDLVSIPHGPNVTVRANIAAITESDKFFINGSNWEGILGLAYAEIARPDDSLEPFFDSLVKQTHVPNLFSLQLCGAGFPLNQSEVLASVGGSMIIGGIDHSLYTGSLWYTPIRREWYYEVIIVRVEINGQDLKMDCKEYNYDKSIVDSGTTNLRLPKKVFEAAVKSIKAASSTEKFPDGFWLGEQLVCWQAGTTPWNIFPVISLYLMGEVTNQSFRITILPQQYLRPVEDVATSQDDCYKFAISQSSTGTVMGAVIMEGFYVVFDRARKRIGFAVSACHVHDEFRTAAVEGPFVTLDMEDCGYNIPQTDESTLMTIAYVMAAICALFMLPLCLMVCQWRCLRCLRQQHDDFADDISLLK

Compound	melting point	inhibition of BACE-1 enzyme activity (inhibitory activities (%) shown in FIG. 1) [1]
COc1ccc(/C=C/C(=O)CC(=O)/C=C/c2c(OC)cccc2OC)cc1O [CU104, (1E,6E)-1-(2,6-dimethoxyphenyl)-7-(3-hydroxy-4-methoxyphenyl)hepta-1,6-diene-3,5-dione]	74 to 80 °C	strongly inhibited
COc1ccc(/C=C/C(=O)CC(=O)/C=C/c2cccc(O)c2OC)cc1O [CU176, (1E,6E)-1-(3-hydroxy-2-methoxyphenyl)-7-(3-hydroxy-4-methoxyphenyl)hepta-1,6-diene-3,5-dione]	190 to 192 °C	strongly inhibited
Cn1cc(/C=C/C(=O)CC(=O)/C=C/c2ccc(O)cc2)cn1 [CU198, (1E,6E)-1-(4-hydroxyphenyl)-7-(1-methyl-1H-pyrrazol-4-yl)hepta-1,6-diene-3,5-dione]		strongly inhibited
COc1ccc(/C=C/C(=O)CC(=O)/C=C/c2cc(O)cc(O)c2)cc1O [CU094, (1E,6E)-1-(3,5-dihydroxyphenyl)-7-(3-hydroxy-4-methoxyphenyl)hepta-1,6-diene-3,5-dione]	190 to 193 °C	strongly inhibited
COc1cc(/C=C/C(=O)CC(=O)/C=C/c2cccn2C)ccc1O [CU121, (1E,6E)-1-(4-hydroxy-3-methoxyphenyl)-7-(1-methyl-1H-pyrrol-2-yl)hepta-1,6-diene-3,5-dione]	131 to 132 °C	strongly inhibited
COc1cc(/C=C/C(=O)CC(=O)/C=C/c2ccc(O)c(C)c2)ccc1O [CU031, (1E,6E)-1-(4-hydroxy-3-methoxyphenyl)-7-(4-hydroxy-3-methylphenyl)hepta-1,6-diene-3,5-dione]	173 to 175 °C	strongly inhibited
O=C(/C=C/c1ccc(O)cc1)CC(=O)/C=C/c1ccc2[nH]ccc2c1 [CU187, (1E,6E)-1-(4-hydroxyphenyl)-7-(1H-indol-5-yl)hepta-1,6-diene-3,5-dione]	222 to 226 °C	strongly inhibited
CN(C)c1ccc(/C=C/C(=O)CC(=O)/C=C/c2ccc(O)cc2)c([N+](=O)[O-])c1 [CU194, (1E,6E)-1-(4-dimethylamino-2-nitrophenyl)-7-(4-hydroxyphenyl)hepta-1,6-diene-3,5-dione]	217 to 222 °C	strongly inhibited
O=C(/C=C/c1ccc(O)cc1)CC(=O)/C=C/c1ccc(O)c(F)c1 [CU030, (1E,6E)-1-(3-fluoro-4-hydroxyphenyl)-7-(4-hydroxyphenyl)hepta-1,6-diene-3,5-dione]	190 to 192 °C	strongly inhibited
COc1cc(/C=C/C(=O)CC(=O)/C=C/c2ccc3cc[nH]c3c2)ccc1O [CU190, (1E,6E)-1-(4-hydroxy-3-methoxyphenyl)-7-(1H-indol-6-yl)hepta-1,6-diene-3,5-dione]		strongly inhibited
O=C(/C=C/c1ccc(O)cc1)CC(=O)/C=C/c1cccc2ccccc12 [CU112, (1E,6E)-1-(4-hydroxyphenyl)-7-(naphthalen-1-yl)hepta-1,6-diene-3,5-dione]		strongly inhibited
COc1ccc(/C=C/C(=O)CC(=O)/C=C/c2cccn2C)cc1O [CU122, (1E,6E)-1-(3-hydroxy-4-methoxyphenyl)-7-(1-methyl-1H-pyrrol-2-yl)hepta-1,6-diene-3,5-dione]		strongly inhibited
O=C(/C=C/c1ccc(O)cc1)CC(=O)/C=C/c1c[nH]c2ccccc12 [CU110, (1E,6E)-1-(4-hydroxyphenyl)-7-(1H-indol-3-yl)hepta-1,6-diene-3,5-dione]	215 to 220 °C	strongly inhibited

Reference: patent publication US8962674B2 (Tokyo Institute of Technology, priority 2006, dated 2015)
